Measurements published in patent publication US20240415819A1, “MACROCYCLIC COMPOUNDS AS PROTEASOME SUBUNIT BETA TYPE-5 INHIBITORS” (Lead Discovery Center GmbH, priority 2021, published 2024).

Legend:
[1] = tested on: A549 (human lung carcinoma cell line); assay: Glo assay of A549 cells (Table 3; ProteasomeGlo plating scheme); type: cell-based; conditions: Homo sapiens; A549 cells; read-out: PGLo A549
Source text: Inhibition is indicated as IC50 [nM] (“-”=not measured). […] • Chymotrypsin-Like Cell-Based Proteasome-GloTM Assay (Promega; […]) • Cell culture 384-well plates (Greiner BioOne; 781080) • Dispensing cassette, MultiDrop Standard tube dispensing cassette (Thermo Scientific; 24072670) • DPBS (Pan BioTech; P04-36500) • Cell culture 384-well plates (Greiner BioOne; 781080) • CPD source plate: diamond-shape plate (Labcyte; LP-0200) • Intermediate plate (Labcyte; P-05525) [table] • a. Remove the plates with cells from the incubator. • b. Take all the plates including the compound plate, intermediate plate and Staurosporine plate to the ECHO. • c. Click on “Open” in the ECHO software and select the protocol “QLI5_25ul_30 uM-Grenier”. • d. Follow the on-screen prompts and instructions once you click “Start” to insert the compound plate, intermediate plate and destination plates. • e. Change the final number of destination plates on the program. • f. Follow the on-screen prompts and instructions once you click “Start” to load the Staurosporine and destination plates. • g. Once all the compounds, DMSO and Staurosporine have been transferred, place the destination plates in a wet tissue box. • h. Place the destination plates back into the incubator and incubate at 37° C., 5% CO2 for 105 minutes. • i. Re-seal all the compound+Stauro diamond and intermediate plates and store in the dark. Chymotrypsin like ProteasomeGlo Assay • 1. Thaw the components of the ProteasomeGlo assay at room temperature including the ProteasomeGlo Buffer, the lyophilized Luciferin Detection Reagent and the Suc-LLVY-Glo Substrate. • 2. Reconstitute the Luciferin Detection Reagent in the amber coloured bottle by adding 50 ml of the ProteasomeGlo Buffer. • 3. Vortex the Suc-LLVY-Glo Substrate briefly to reconstitute the Substrate well. • 4. Spin down the Substrate and add 250 μl of the Substrate to the reconstituted Luciferin Detection Reagent from step 2. • 5. Briefly vortex the amber bottle with the mix to prepare a homogenous solution. • 6. Place the mix prepared in step 5 to sit at room temperature for 60 minutes. • 7. After 60 minutes, pipette 25 μl of the mix from step 5 into all wells with the cells. • 8. Shake the plates for 2-5 minutes to ensure the complete mixing of the ProteasomeGlo reagent with the cells. • 9. Leave the plates in the dark for 10-15 minutes. • 10. Measure the luminescence read-out using the Viktor and the protocol “Luminescence_384Well_0.2 sec”. (Note: The Protoeasome-GloTM Reagent (combined Proteasome-GloTM Substrate, Proteasome-GloTM Buffer and Luciferin Detection Reagent) can be stored at 4° C. or -20° C. for 1 month with minimal loss of activity.)

HT-29 cells = assay: CellTiter-Glo luminescent cell viability assay with HT-29 cells (72h incubation); type: cell-based, human; conditions: Homo sapiens, HT-29, HT29 cells, read-out: CTG HT29
Protocol: Cell Titer Glo Viability Assay with HT-29 Cells (72h Incubation) The CellTiter-Glo Luminescent Cell Viability Assay (Promega) is a homogeneous method of determining the number of viable cells in culture. It is based on quantification of ATP, indicating the presence of metabolically active cells. On day 1 400 HT-29 cells per well are seeded in white 384well plates (Greiner, #781080) in 25 μl cell culture medium (DMEM (PAN-Biotech #P04-03590)+10% FCS+glutamine). After incubation for 24 h at 37° C./5% CO2 compounds or DMSO are added at different concentrations by Echo Liquid Handling Technology. Cells are further incubated in humidified chambers for 72 h at 37° C. and 5% CO2. Cells treated with the compound vehicle DMSO are used as positive controls and cells treated with 10 μM Staurosporine serve as negative controls. At day 5-72h after compound addition—the CellTiter Glo Reagent is prepared according to the instructions of the kit (Promega Inc.): Reagent is mixed 1:1 with cell culture medium. Thereon, mixture and assay plates are equilibrated at room temperature for 20 min. Equal volumes of the reagent-medium-mixture is added to the volume of culture medium present in each well. The plates are mixed at […] for 2 minutes on an orbital shaker. The microplates are then incubated at room temperature for 10 minutes for stabilization of the luminescent signal. Following incubation the luminescence is recorded on a Victor microplate reader (Perkin Elmer) using a 200 ms integration time. The data is then analyzed with Excel using the XLFIT Plugin (dose response Fit 205) for IC50-determination. As quality control the Z′-factor is calculated from 16 positive and negative control values. […] Inhibition is indicated as IC50 [nM] (“-”=not measured).

[2] = target: T1, β5 subunit of the human constitutive proteasome (CPS) (Homo sapiens, UniProt P28074); assay: β5 inhibition assay, human constitutive proteasome (Suc-LLVY-AMC); type: biochemical; conditions: IC50 class, Suc-LLVY-AMC substrate
T1 construct: purchased Boston Biochem E-360
Protocol: The enzymatic activity of the β5 subunit of the human constitutive proteasome (CPS) is analyzed. In another assay, which differs from the assay of the human constitutive proteasome only in using the human immunoproteasome (IPS) the enzymatic activity of the β5 subunit of the human immunoproteasome (IPS) is analyzed. […] Inhibition is indicated as IC50 [nM] (“-”=not measured).

[3] = target: T2, β5 subunit of the human immunoproteasome (IPS) (Homo sapiens, UniProt P28062); assay: β5 inhibition assay, human immunoproteasome (Suc-LLVY-AMC); type: biochemical; conditions: IC50 class, Suc-LLVY-AMC substrate
T2 construct: purchased Boston Biochem E-370
Protocol: The enzymatic activity of the β5 subunit of the human constitutive proteasome (CPS) is analyzed. In another assay, which differs from the assay of the human constitutive proteasome only in using the human immunoproteasome (IPS) the enzymatic activity of the β5 subunit of the human immunoproteasome (IPS) is analyzed. Incubation of the enzyme with its fluorogenic substrate Suc-LLVY-AMC leads to liberation of the fluorescent dye AMC which can be measured with a suitable plate reader. • 100 mM HEPES pH7.5 • 50 mM NaCl • 0.02% SDS • 1 mM DTT (add fresh) • Victor X5 (Perkin Elmer) • Label: Umbeliferone (0.1s) • Excitation wavelength: 355 nm • Emission wavelength: 460 nm • 4 μl human cPS or IPS enzyme in assay buffer (final assay concentration 1 nM) or 4 μl assay buffer for negative controls • Compound addition via acoustic dispenser (Echo 520, Labcyte) • Mix and incubate @ RT for 10 min • 4 μl Suc-LLVY-AMC substrate (final assay concentration 22.6 μM) • Mix and incubate @ RT for 4 h (dark) • Stop reaction with 4 μl Bortezomib (final assay concentration 1 μM) • 15 min @ RT • Measure (Excitation 355 nm; Emission 460 nm)

SMILES | IC50 [1] | IC50 (HT-29 cells) | IC50 [2] | IC50 [3]
Cc1cc2cc(c1C)CNC(=O)[C@H](CCc1ccccc1)NC(=O)CCC(=O)N1CCCC(CCO2)C1 (stereo partly drawn) [Compound 95, (9S)-5^4,5^5-dimethyl-9-phenethyl-4-oxa-7,10-diaza-1(3,1)-piperidina-5(1,3)-benzenacyclotetradecaphane-8,11,14-trione] | 1 to 5 µM | 0.5 to 1 µM | < 0.1 µM | < 0.1 µM
CC(=O)N[C@H]1CCC(=O)N2CCC2(C)COc2ccc(C)c(c2)CNC(=O)[C@H](CCc2ccccc2)NC1=O (stereo partly drawn) [Compound 265, N-((8S,11S)-1^2,4^4-dimethyl-7,10,14-trioxo-8-phenethyl-3-oxa-6,9-diaza-1(2,1)-azetidina-4(1,3)-benzenacyclotetradecaphane-11-yl)acetamide] | > 5 µM | 0.1 to 0.5 µM |  | 0.1 to 0.5 µM
Cc1ccc2cc1CNC(=O)[C@H](CCc1ccccc1)NC(=O)[C@@H](NC(=O)OCc1ccccc1)CC(=O)N1CCC(CCO2)C1 (stereo partly drawn) [Compound 325, benzyl ((9S,12S)-5^4-methyl-8,11,14-trioxo-9-phenethyl-4-oxa-7,10-diaza-1(3,1)-pyrrolidina-5(1,3)-benzenacyclotetradecaphane-12-yl)carbamate] | < 0.1 µM | < 0.1 µM | < 0.1 µM | < 0.1 µM
Cc1ccc2cc1CNC(=O)[C@H](CCc1ccccc1)NC(=O)[C@@H](NC(=O)Cc1cn3ccsc3n1)CC(=O)N1CCCC(CCO2)C1 (stereo partly drawn) [Compound 330, 2-(imidazo[2,1-b]thiazol-6-yl)-N-((9S,12S)-5^4-methyl-8,11,14-trioxo-9-phenethyl-4-oxa-7,10-diaza-1(3,1)-piperidina-5(1,3)-benzenacyclotetradecaphane-12-yl)acetamide] | < 0.1 µM | < 0.1 µM | < 0.1 µM | < 0.1 µM
CCOC(C(=O)N[C@H]1CC(=O)N2CCCC(CCOc3ccc(C)c(c3)CNC(=O)[C@H](CCc3ccccc3)NC1=O)C2)c1ccc(NC(C)=O)cc1 (stereo partly drawn) [Compound 324, 2-(4-acetamidophenyl)-2-ethoxy-N-((9S,12S)-5^4-methyl-8,11,14-trioxo-9-phenethyl-4-oxa-7,10-diaza-1(3,1)-piperidina-5(1,3)-benzenacyclotetradecaphane-12-yl)acetamide] | < 0.1 µM | < 0.1 µM | < 0.1 µM | < 0.1 µM
CC(=O)N[C@H]1CCCC(=O)NCCCCOc2ccc(C)c(c2)CNC(=O)[C@H](CCc2ccccc2)NC1=O [Compound 269, N-((12S,15S)-1^4-methyl-8,13,16-trioxo-15-phenethyl-2-oxa-7,14,17-triaza-1(1,3)-benzenacyclooctadecaphane-12-yl)acetamide] | 1 to 5 µM | 1 to 5 µM | 1 to 5 µM | < 0.1 µM
Cc1ccc2cc1CNC(=O)[C@H](CCc1ccccc1)NC(=O)[C@@H](NC(=O)C(C)c1ccc3ncccc3c1)CC(=O)N1CCCC(CCO2)C1 (stereo partly drawn) [Compound 369, N-((9S,12S)-5^4-methyl-8,11,14-trioxo-9-phenethyl-4-oxa-7,10-diaza-1(3,1)-piperidina-5(1,3)-benzenacyclotetradecaphane-12-yl)-2-(quinolin-6-yl)propanamide] | < 0.1 µM | < 0.1 µM | < 0.1 µM | < 0.1 µM
Cc1ccc2cc1CNC(=O)[C@H](CCc1ccccc1)NC(=O)[C@@H](NC(=O)Cc1ccccn1)CC(=O)N1CCCC(CCO2)C1 (stereo partly drawn) [Compound 331, N-((9S,12S)-5^4-methyl-8,11,14-trioxo-9-phenethyl-4-oxa-7,10-diaza-1(3,1)-piperidina-5(1,3)-benzenacyclotetradecaphane-12-yl)-2-(pyridin-2-yl)acetamide] | < 0.1 µM | < 0.1 µM | < 0.1 µM | < 0.1 µM
Cc1ccc2cc1CNC(=O)[C@H](CCc1ccccc1)NC(=O)[C@@H](NC(=O)Cc1nc(-c3ccccc3)n[nH]1)CC(=O)N1CCCC(CCO2)C1 (stereo partly drawn) [Compound 328, N-((9S,12S)-5^4-methyl-8,11,14-trioxo-9-phenethyl-4-oxa-7,10-diaza-1(3,1)-piperidina-5(1,3)-benzenacyclotetradecaphane-12-yl)-2-(3-phenyl-1H-1,2,4-triazol-5-yl)acetamide] | 0.1 to 0.5 µM | < 0.1 µM | < 0.1 µM | < 0.1 µM
COC(C(=O)N[C@H]1CC(=O)N2CCCC(CCOc3ccc(C)c(c3)CNC(=O)[C@H](CCc3ccccc3)NC1=O)C2)c1ccc(NC(C)=O)cc1 (stereo partly drawn) [Compound 323, 2-(4-acetamidophenyl)-2-methoxy-N-((9S,12S)-5^4-methyl-8,11,14-trioxo-9-phenethyl-4-oxa-7,10-diaza-1(3,1)-piperidina-5(1,3)-benzenacyclotetradecaphane-12-yl)acetamide] | < 0.1 µM | < 0.1 µM | < 0.1 µM | < 0.1 µM
